One may read the IC50 as the concentration at which inhibition is half-maximal.

This test relates to Jurkat. The test can be described thus: Antiproliferative activity against human Jurkat T cells assessed as reduction in cell viability measured for 48 hrs by CCK-8 assay. It is filed as functional, cell-based. On the technique in general: Formazan colour is commonly taken as a measure of viable cells.
Take `Nc1ccccc1NC(=O)CC(=O)Nc1ccc(-c2ncc(CNc3ccccc3)s2)cc1`: the concentration for half-maximal inhibition (IC50) was over 1220 nM.
Next, `CCCNNC(=O)CCCCCNC(=O)c1ncc(CNc2ccccc2)s1`: over 10000 nM.
The result for `CCCNNC(=O)CCCCCCNC(=O)c1ncc(CNc2ccccc2)s1` reads 1510 nM; that for `Nc1ccccc1NC(=O)CCC(=O)Nc1ccc(-c2ncc(CNc3ccccc3)s2)cc1`, over 10000 nM; that for `Nc1ccccc1NC(=O)CCCCCCC(=O)Nc1ccc(-c2ncc(CNc3ccccc3)s2)cc1`, 290 nM.
Next, `Nc1ccccc1NC(=O)CCCC(=O)Nc1ccc(-c2ncc(CNc3ccccc3)s2)cc1`: 1020 nM.
On to `Nc1ccccc1NC(=O)c1ncc(CNc2ccccc2)s1`, for which the IC50 was 400 nM.
Next, `Nc1ccccc1NC(=O)CCCCNC(=O)c1ncc(CNc2ccccc2)s1`: 950 nM; `Nc1ccccc1NC(=O)CCNC(=O)c1ncc(CNc2ccccc2)s1`: 5150 nM; `CCCNNC(=O)c1ccc(NC(=O)c2ncc(CNc3ccccc3)s2)cc1`: 550 nM.
Next, `Nc1ccccc1NC(=O)c1ccc(NC(=O)c2ncc(CNc3ccccc3)s2)cc1`: 2520 nM; `Nc1ccccc1NC(=O)CCCCCNC(=O)c1ncc(CNc2ccccc2)s1`: 1060 nM; `Nc1ccccc1NC(=O)/C=C/c1ccc(CNC(=O)c2ncc(CNc3ccccc3)s2)cc1`: 390 nM.
Next, `CCCNNC(=O)c1ncc(CNc2ccccc2)s1`: over 10000 nM; `CCCNNC(=O)CCCCNC(=O)c1ncc(CNc2ccccc2)s1`: 1180 nM; `Nc1ccccc1NC(=O)CCCCCCNC(=O)c1ncc(CNc2ccccc2)s1`: 450 nM.
As for `CCCNNC(=O)CCNC(=O)c1ncc(CNc2ccccc2)s1`, the IC50 stood at 4770 nM.
In the case of `Nc1ccccc1NC(=O)CCCNC(=O)c1ncc(CNc2ccccc2)s1`, the IC50 was 560 nM.
For `CCCNNC(=O)CCCNC(=O)c1ncc(CNc2ccccc2)s1`, the IC50 was determined as 4880 nM.
On to `Nc1ccccc1NC(=O)CCCCC(=O)Nc1ccc(-c2ncc(CNc3ccccc3)s2)cc1`, for which the IC50 was 670 nM.
The result for `Nc1ccccc1NC(=O)CNC(=O)c1ncc(CNc2ccccc2)s1` reads over 10000 nM.
Turning to `CCCNNC(=O)CNC(=O)c1ncc(CNc2ccccc2)s1`, the IC50 was over 10000 nM.

(Values after ChEMBL document CHEMBL5523759, “Discovery of Novel HDAC3 Inhibitors with PD-L1 Downregulating/Degrading and Antitumor Immune Effects” (J Med Chem, 2024).)
